We go through 17 molecules from patent US20050049245A1, “Heteroaryl-ethanolamine derivatives as antiviral agents” (priority 2002, published 2005).

One may read the pIC50 as the negative decadic logarithm of the IC50, by convention in mol/L. One may read the melting point as the temperature, or range, at which the solid turns liquid.

The target of one data set is VZV polymerase (Varicella-zoster virus, UniProt P09252). Briefly: VZV polymerase assay (Table 1). It is filed as biochemical.
In another data set the target is T1, HCMV polymerase (Human cytomegalovirus, UniProt P08546).
T1 construct: made in house; host or cells: recombinant baculovirus-infected SF-9 cells
Briefly: HCMV polymerase scintillation proximity assay (SPA). It is filed as biochemical. The protocol: The HCMV polymerase assay is performed using a scintillation proximity assay (SPA) as described in several references, such as N. D. Cook, et al., Pharmaceutical Manufacturing International, pages 49-53 (1992); KY Takeuchi, Laboratory Practice, September issue (1992); U.S. Pat. No. 4,568,649 (1986); which are incorporated by reference herein. Reactions are performed in 96-well plates. The assay is conducted in 100 yl volume with 5.4 mM HEPES (pH 7.5), 11.7 mM KCl, 4.5 mM MgCl2, 0.36 mg/ml BSA, and 90 nM ^3H-dTTP. Assays are run with and without CHAPS, (3-[(3-Cholamidopropyl)-dimethylammonio]-1-propane-sulfonate) at a final concentration of 2 mM. HCMV polymerase is diluted in enzyme dilution buffer containing 50% glycerol, 250 mM NaCl, 10 mM HEPES (pH 7.5), 100 μg/ml BSA, and 0.01% sodium azide. The HCMV polymerase, which is expressed in recombinant baculovirus-infected SF-9 cells and purified according to literature procedures, is added at 10% (or 10 μl) of the final reaction volume, i.e., 100 μl. Compounds are diluted in 50% DMSO and 10 μl are added to each well. Control wells contain an equivalent concentration of DMSO. Unless noted otherwise, reactions are initiated via the addition of 6 nM biotinylated poly(dA)-oligo(dT) template/primer to reaction mixtures containing the enzyme, substrate, and compounds of interest. Plates are incubated in a 25° C. or 37° C. H2O bath and terminated via the addition of 40 μl/reaction of 0.5 M EDTA (pH 8) per well. Reactions are terminated within the time-frame during which substrate incorporation is linear and varied depending upon the enzyme and conditions used, i.e., 30 min. for HCMV polymerase. Ten (10) μl of streptavidin-SPA beads (20 mg/ml in PBS/10% glycerol) are added following termination of the reaction. Plates are incubated 10 min. at 37° C., then equilibrated to room temperature, and counted on a Packard Topcount. Linear regressions are performed and IC50's are calculated using computer software.
A modified version of the above HCMV polymerase assay is performed as described above, but with the following changes: Compounds are diluted in 100% DMSO until final dilution into assay buffer. In the previous assay, compounds are diluted in 50% DMSO. 4.5 mM Dithiothreitol (DTT) is added to the polymerase buffer.
All results are listed as Polymerase IC50 ([…]) values. In Table 1, the term “n.d.” refers to activity data not determined.
(Scintillation proximity formats need no separation of bound from free tracer.)

For another data set, the target named is HSV polymerase (Human herpesvirus 1, UniProt P04293). Briefly: HSV polymerase assay (Table 1). It counts as biochemical.
The mark [1] stands for this setting: VZV polymerase, read-out: Polymerase IC50 VZV.
The mark [2] stands for this setting: HCMV polymerase, SPA, read-out: Polymerase IC50 HCMV.
[3] abbreviates: HSV polymerase, read-out: Polymerase IC50 HSV.

SMILES strings stand for the structures. pIC50: −log10 of the molar value. Where two headings read alike, the source gives them in different places.

HSV polymerase, sequence (P04293 whole entry): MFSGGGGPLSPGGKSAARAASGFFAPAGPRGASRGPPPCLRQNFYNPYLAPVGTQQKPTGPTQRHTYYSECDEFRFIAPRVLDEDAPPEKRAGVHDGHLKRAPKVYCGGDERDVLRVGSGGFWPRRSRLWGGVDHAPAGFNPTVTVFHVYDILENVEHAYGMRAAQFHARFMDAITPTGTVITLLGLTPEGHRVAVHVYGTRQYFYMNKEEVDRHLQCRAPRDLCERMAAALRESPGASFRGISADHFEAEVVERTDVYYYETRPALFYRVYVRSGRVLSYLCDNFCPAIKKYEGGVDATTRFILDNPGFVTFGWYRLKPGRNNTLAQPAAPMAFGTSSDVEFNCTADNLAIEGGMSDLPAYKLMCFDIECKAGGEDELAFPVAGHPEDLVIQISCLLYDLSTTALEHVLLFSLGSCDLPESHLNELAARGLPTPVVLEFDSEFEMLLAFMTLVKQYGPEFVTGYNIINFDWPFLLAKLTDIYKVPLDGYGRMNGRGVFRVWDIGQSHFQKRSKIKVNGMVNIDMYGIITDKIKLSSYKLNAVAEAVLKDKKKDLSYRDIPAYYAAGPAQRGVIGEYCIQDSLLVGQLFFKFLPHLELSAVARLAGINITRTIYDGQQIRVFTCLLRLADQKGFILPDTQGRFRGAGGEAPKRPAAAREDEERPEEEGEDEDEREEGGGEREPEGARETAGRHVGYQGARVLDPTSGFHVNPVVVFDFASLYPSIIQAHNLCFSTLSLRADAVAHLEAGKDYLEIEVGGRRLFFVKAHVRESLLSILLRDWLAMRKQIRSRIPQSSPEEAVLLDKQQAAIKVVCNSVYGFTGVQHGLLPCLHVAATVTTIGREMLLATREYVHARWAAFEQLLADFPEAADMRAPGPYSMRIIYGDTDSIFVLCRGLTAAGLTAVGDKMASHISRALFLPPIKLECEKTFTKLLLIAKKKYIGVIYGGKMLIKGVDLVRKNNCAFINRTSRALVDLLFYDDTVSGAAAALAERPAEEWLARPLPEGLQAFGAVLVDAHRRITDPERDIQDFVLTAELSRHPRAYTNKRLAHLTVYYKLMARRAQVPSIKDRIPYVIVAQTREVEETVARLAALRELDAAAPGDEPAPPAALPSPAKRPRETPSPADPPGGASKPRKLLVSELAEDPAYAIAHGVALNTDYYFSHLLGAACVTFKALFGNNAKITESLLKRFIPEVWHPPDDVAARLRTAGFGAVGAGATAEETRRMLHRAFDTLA
T1 sequence (P08546 whole entry): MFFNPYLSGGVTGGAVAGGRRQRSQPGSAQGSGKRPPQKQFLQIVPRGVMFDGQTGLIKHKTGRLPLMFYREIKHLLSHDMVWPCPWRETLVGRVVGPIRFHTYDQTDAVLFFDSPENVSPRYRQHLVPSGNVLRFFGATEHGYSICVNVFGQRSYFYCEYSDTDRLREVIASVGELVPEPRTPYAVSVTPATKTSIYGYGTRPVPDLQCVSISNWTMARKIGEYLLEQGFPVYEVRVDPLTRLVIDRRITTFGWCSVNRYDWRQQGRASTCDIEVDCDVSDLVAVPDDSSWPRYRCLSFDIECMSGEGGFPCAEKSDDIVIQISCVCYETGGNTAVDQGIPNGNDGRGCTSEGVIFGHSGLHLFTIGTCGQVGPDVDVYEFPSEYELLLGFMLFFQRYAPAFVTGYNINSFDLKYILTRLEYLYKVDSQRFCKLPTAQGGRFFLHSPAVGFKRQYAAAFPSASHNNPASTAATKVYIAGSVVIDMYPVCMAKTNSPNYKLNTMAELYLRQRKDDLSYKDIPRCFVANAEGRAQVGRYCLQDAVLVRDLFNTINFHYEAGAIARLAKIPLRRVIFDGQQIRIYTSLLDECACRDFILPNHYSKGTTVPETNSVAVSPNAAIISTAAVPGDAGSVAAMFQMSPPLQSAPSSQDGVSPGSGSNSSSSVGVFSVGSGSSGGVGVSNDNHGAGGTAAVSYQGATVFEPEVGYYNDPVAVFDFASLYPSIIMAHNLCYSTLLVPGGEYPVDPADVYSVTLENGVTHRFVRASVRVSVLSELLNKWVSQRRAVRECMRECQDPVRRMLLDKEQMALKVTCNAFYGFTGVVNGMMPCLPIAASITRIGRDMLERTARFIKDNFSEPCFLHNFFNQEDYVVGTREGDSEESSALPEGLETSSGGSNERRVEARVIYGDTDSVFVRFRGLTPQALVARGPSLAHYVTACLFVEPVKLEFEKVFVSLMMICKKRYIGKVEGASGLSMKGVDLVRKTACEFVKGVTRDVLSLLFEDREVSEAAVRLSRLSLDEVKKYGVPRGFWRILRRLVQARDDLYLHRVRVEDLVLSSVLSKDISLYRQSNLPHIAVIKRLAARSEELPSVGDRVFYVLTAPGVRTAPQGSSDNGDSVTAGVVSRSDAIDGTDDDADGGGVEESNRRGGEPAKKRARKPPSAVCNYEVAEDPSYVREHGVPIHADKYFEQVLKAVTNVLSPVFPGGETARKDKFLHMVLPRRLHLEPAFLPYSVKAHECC
VZV polymerase, sequence (P09252 whole entry): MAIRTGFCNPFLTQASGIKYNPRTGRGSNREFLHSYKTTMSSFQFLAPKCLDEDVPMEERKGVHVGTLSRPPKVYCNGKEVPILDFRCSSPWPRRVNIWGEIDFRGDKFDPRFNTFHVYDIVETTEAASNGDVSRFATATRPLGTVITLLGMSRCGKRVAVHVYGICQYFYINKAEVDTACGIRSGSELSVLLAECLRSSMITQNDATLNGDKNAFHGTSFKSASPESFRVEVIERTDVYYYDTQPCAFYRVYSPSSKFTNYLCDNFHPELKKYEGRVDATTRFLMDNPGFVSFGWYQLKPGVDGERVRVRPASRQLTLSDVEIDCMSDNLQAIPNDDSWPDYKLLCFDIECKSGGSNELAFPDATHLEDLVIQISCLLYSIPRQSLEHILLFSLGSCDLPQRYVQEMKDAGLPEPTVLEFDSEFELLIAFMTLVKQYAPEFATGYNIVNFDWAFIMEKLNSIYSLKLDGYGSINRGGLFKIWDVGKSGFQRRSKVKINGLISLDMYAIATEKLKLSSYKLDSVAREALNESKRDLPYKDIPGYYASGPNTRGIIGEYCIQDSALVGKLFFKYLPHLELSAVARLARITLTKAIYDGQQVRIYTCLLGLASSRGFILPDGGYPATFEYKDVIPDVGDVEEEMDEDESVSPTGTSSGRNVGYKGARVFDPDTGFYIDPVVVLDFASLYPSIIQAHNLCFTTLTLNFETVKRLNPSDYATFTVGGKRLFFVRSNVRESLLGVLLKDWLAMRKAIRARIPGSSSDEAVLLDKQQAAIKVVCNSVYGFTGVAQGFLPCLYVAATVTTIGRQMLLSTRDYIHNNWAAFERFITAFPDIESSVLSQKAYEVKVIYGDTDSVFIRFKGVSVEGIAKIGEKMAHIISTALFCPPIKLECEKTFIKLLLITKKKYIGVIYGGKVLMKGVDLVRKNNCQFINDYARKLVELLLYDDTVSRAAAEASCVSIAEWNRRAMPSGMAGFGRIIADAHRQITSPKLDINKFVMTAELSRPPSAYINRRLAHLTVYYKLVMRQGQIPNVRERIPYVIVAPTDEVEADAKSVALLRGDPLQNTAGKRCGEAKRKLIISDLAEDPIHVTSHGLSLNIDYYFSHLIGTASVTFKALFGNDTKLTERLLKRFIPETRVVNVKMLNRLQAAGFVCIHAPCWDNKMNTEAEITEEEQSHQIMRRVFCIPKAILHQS

On to `Cc1ccc(C(O)CN(C)Cc2cc3c(=O)c(C(=O)NCc4ccc(Cl)cc4)cn(C)c3s2)o1` (racemic) [Example 3, rac-N-(4-Chlorobenzyl)-2-(((2-hydroxy-2-(5-methyl-2-furyl)ethyl)(methyl)amino)methyl)-7-methyl-4-oxo-4,7-dihydrothieno[2,3-b]pyridine-5-carboxamide], for which the melting point lay within 137 to 140 °C. The pIC50 on VZV polymerase (setting [1]) is 6.89. The pIC50 at HCMV polymerase (setting [2]) is 7.15. Further, on HSV polymerase (setting [3]), the pIC50 was 6.59.
In the same order, the values of `CN(Cc1cc2c(=O)c(C(=O)NCc3ccc(Cl)cc3)cn(C)c2s1)CC(O)c1ccoc1` (racemic) [Example 4, rac-N-(4-Chlorobenzyl)-2-(((2-(3-furyl)-2-hydroxyethyl)(methyl)amino)methyl)-7-methyl-4-oxo-4,7-dihydrothieno[2,3-b]pyridine-5-carboxamide] are 151 to 153 °C, 6.41, 6.60 and 6.08.
The molecule `CN(Cc1cc2c(=O)c(C(=O)NCc3ccc(Cl)cc3)cn(C)c2s1)CC(O)c1cc2ccccc2o1` (racemic) [Example 5, rac-2-(((2-(1-Benzofuran-2-yl)-2-hydroxyethyl)(methyl)amino)methyl)-N-(4-chlorobenzyl)-7-methyl-4-oxo-4,7-dihydrothieno[2,3-b]pyridine-5-carboxamide] came in with a melting point of 212 to 214 °C. The negative logarithm of the IC50 (pIC50) on VZV polymerase (setting [1]) was 8.00. For the same molecule, the pIC50 at HCMV polymerase (setting [2]) was 8.00. The pIC50 at HSV polymerase (setting [3]) is 7.52.
As to `CN(Cc1cc2c(=O)c(C(=O)NCc3ccc(Cl)cc3)cn(C)c2s1)CC(O)c1ccc[nH]1` (racemic) [Example 7, rac-N-(4-Chlorobenzyl)-2-(((2-hydroxy-2-(1H-pyrrol-2-yl)ethyl)(methyl)amino)-methyl)-7-methyl-4-oxo-4,7-dihydrothieno[2,3-b]pyridine-5-carboxamide], the melting point was 169 to 172 °C (dec.). The pIC50 at VZV polymerase (setting [1]) is 6.48. Moreover, the pIC50 at HCMV polymerase (setting [2]) is 6.52. Also, the negative-log IC50 (pIC50) at HSV polymerase (setting [3]) is 6.01.
Regarding `CN(Cc1cc2c(=O)c(C(=O)NCc3ccc(Cl)cc3)cn(C)c2s1)CC(O)c1cn(C)cn1` (racemic) [Example 9, rac-N-(4-Chlorobenzyl)-2-(((2-hydroxy-2-(1-methyl-1H-imidazol-4-yl)ethyl) (methyl)amino)methyl)-7-methyl-4-oxo-4,7-dihydrothieno[2,3-b]pyridine-5-carboxamide], the melting point is 124 to 130 °C. Besides, the negative logarithm of the IC50 (pIC50) on HCMV polymerase (setting [2]) is 5.97.
Taken in the same sequence, the figures for `Cc1cc(C(O)CN(C)Cc2cc3c(=O)c(C(=O)NCc4ccc(Cl)cc4)cn(C)c3s2)c(C)o1` (racemic) [Example 12, rac-N-(4-Chlorobenzyl)-2-(((2-(2,5-dimethyl-3-furyl)-2-hydroxyethyl)(methyl)-amino)methyl)-7-methyl-4-oxo-4,7-dihydrothieno[2,3-b]pyridine-5-carboxamide] were 167 to 172 °C and 6.55.
As to `CN(Cc1cc2c(=O)c(C(=O)NCc3ccc(Cl)cc3)cn(C)c2s1)CC(O)c1ccc(C#N)s1` (racemic) [Example 15, rac-N-(4-Chlorobenzyl)-2-(((2-(5-cyanothien-2-yl)-2-hydroxyethyl)(methyl)-amino)methyl)-7-methyl-4-oxo-4,7-dihydrothieno[2,3-b]pyridine-5-carboxamide], the melting point was 155 to 160 °C (dec.). Moreover, the pIC50 on HCMV polymerase (setting [2]) was 6.62.
With `CN(Cc1cc2c(=O)c(C(=O)NCc3ccc(Cl)cc3)cn(C)c2s1)CC(O)c1nc2ccccc2s1` (racemic) [Example 17, rac-2-(((2-(1,3-Benzothiazol-2-yl)-2-hydroxyethyl)(methyl)amino)methyl)-N-(4-chlorobenzyl)-7-methyl-4-oxo-4,7-dihydrothieno[2,3-b]pyridine-5-carboxamide], the negative logarithm of the IC50 (pIC50) is 6.96 on VZV polymerase (setting [1]), 6.92 on HCMV polymerase (setting [2]) and 6.41 at HSV polymerase (setting [3]).
In the same order, the values of `CCn1cc(C(=O)NCc2ccc(Cl)cc2)c(=O)c2cc(CN(C)CC(O)c3cc4ccccc4o3)sc21` (racemic) [Example 22, rac-2-(((2-(1-Benzofuran-2-yl)-2-hydroxyethyl)(methyl)amino)methyl)-N-(4-chlorobenzyl)-7-ethyl-4-oxo-4,7-dihydrothieno[2,3-b]pyridine-5-carboxamide] are 7.10, 7.05 and 6.77.
On to `COCCn1cc(C(=O)NCc2ccc(Cl)cc2)c(=O)c2cc(CN(C)CC(O)c3cc4ccccc4o3)sc21` (racemic) [Example 24, rac-2-(((2-(1-Benzofuran-2-yl)-2-hydroxyethyl)(methyl)amino)methyl)-N-(4-chlorobenzyl)-7-(2-methoxyethyl)-4-oxo-4,7-dihydrothieno[2,3-b]pyridine-5-carboxamide], for which the melting point fell in the range of 133 to 140 °C. Besides, the pIC50 on HCMV polymerase (setting [2]) is 6.51.
`CN(Cc1cc2c(=O)c(C(=O)NCc3ccc(Cl)cc3)cn(C)c2s1)CC(O)c1ncc[nH]1` (racemic) [Example 36, rac-N-(4-Chlorobenzyl)-2-(((2-hydroxy-2-(1H-imidazol-2-yl)ethyl)(methyl)-amino)methyl)-7-methyl-4-oxo-4,7-dihydrothieno[2,3-b]pyridine-5-carboxamide] displayed a melting point of 177.9 to 179.5 °C. Besides, at HCMV polymerase (setting [2]), the negative logarithm of the IC50 (pIC50) was 6.08.
As for `CN(Cc1cc2c(=O)c(C(=O)NCc3ccc(Cl)cc3)cn(C)c2s1)C[C@@H](O)c1ccn[nH]1` (single isomer, unassigned) [Example 19], the values for the negative logarithm of the IC50 (pIC50) at VZV polymerase (setting [1]), on HCMV polymerase (setting [2]) and at HSV polymerase (setting [3]) were 6.54, 6.68 and 6.11, respectively.
Take `CN(Cc1cc2c(=O)c(C(=O)NCc3ccc(Cl)cc3)cn(C)c2s1)C[C@@H](O)c1ccco1` [Example 2, (+)—N-(4-Chlorobenzyl)-2-((((R)-2-(2-furyl)-2-hydroxyethyl)(methyl)amino)-methyl)-7-methyl-4-oxo-4,7-dihydrothieno [2,3-b]pyridine-5-carboxamide]: the results for the pIC50 on VZV polymerase (setting [1]), at HCMV polymerase (setting [2]) and on HSV polymerase (setting [3]) were 7.52, 7.40 and 7.05, respectively.
As for `CN(Cc1cc2c(=O)c(C(=O)NCc3ccc(Cl)cc3)cn(CC(O)CO)c2s1)C[C@@H](O)c1ccco1` (stereo partly drawn) [Example 26, N-(4-Chlorobenzyl)-7-(2,3-dihydroxypropyl)-2-((((2R)-2-(2-furyl)-2-hydroxy-ethyl)(methyl)amino)methyl)-4-oxo-4,7-dihydrothieno[2,3-b]pyridine-5-carboxamide], the pIC50 on VZV polymerase (setting [1]) is 6.48; at HCMV polymerase (setting [2]), 6.82; at HSV polymerase (setting [3]) it was 6.27.
Consider `CN(Cc1cc2c(=O)c(C(=O)NCc3ccc(Cl)cc3)cn(CCCO)c2s1)C[C@@H](O)c1ccco1` [Example 27, N-(4-Chlorobenzyl)-2-((((2R)-2-(2-furyl)-2-hydroxyethyl)(methyl)amino)methyl)-7-(3-hydroxypropyl)-4-oxo-4,7-dihydrothieno[2,3-b]pyridine-5-carboxamide], for which the pIC50 against VZV polymerase was 6.55; against HCMV polymerase, 6.44; at HSV polymerase it was 6.23.
Take `CCCn1cc(C(=O)NCc2ccc(Cl)cc2)c(=O)c2cc(CN(C)C[C@@H](O)c3ccco3)sc21` [Example 32, N-(4-Chlorobenzyl)-2-((((2R)-2-(2-furyl)-2-hydroxyethyl)(methyl)amino)methyl)-4-oxo-7-propyl-4,7-dihydrothieno[2,3-b]pyridine-5-carboxamide]: the pIC50 on VZV polymerase (setting [1]) is 6.66; at HCMV polymerase (setting [2]) it was 6.74; at HSV polymerase (setting [3]) it was 6.13.
Taken in the same sequence, the figures for `CN(Cc1cc2c(=O)c(C(=O)NCc3ccc(Cl)cc3)cn(CCO)c2s1)C[C@@H](O)c1ccco1` [Example 34, N-(4-Chlorobenzyl)-2-((((2R)-2-(2-furyl)-2-hydroxyethyl)(methyl)amino)methyl)-7-(2-hydroxyethyl)-4-oxo-4,7-dihydrothieno[2,3-b]pyridine-5-carboxamide] were 6.47, 6.62 and 5.97.
